Values of other authors in patent US20250186461A1, “METHODS AND COMPOSITIONS FOR TREATING AND/OR PREVENTING HERNIAS” (Northwestern University, priority 2023, published 2025).

Target: T1, PGR (Homo sapiens, UniProt P06401)
T1 sequence (P06401 1-933): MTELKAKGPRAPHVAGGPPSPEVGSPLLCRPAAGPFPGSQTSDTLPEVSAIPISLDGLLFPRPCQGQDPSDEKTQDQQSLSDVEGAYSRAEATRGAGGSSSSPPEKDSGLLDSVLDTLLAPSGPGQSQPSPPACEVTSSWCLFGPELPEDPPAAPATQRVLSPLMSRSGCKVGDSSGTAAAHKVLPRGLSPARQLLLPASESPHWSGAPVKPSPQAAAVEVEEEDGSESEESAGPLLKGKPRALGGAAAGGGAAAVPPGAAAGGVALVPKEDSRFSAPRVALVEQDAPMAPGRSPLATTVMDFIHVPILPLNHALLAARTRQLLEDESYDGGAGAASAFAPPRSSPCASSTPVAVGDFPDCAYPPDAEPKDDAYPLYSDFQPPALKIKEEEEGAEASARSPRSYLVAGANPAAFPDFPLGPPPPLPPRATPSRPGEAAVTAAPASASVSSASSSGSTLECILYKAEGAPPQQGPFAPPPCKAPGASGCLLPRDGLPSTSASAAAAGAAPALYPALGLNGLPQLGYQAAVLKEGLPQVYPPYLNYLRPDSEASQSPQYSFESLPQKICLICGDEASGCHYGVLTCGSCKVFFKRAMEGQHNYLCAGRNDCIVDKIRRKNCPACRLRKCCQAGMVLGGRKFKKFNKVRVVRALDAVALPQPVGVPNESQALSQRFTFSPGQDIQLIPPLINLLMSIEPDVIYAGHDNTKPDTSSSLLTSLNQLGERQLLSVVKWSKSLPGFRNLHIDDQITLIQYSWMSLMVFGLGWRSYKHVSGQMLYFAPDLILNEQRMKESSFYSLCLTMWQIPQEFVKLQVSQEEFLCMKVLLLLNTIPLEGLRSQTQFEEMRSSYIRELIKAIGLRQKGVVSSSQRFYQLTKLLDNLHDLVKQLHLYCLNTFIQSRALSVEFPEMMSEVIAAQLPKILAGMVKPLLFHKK
Conditions: cited from earlier work

CC(=O)O[C@]1(C(C)=O)CC[C@H]2[C@@H]3CCC4=CC(=O)CCC4=C3[C@@H](c3ccc(N(C)C)cc3)C[C@@]21C [UPA, Ulipristal acetate]
P4/PGR antagonism and PGR selectivity: very high PGR selectivity
